39 molecules from patent US10336684B2, “Phenyl-(aza)cycloalkyl carboxylic acid GPR120 modulators” (BRISTOL-MYERS SQUIBB COMPANY, priority 2014, dated 2019) can be followed below.

Some results are limits rather than exact numbers.

For this assay, the target named is human GPR120 (Homo sapiens (Human), UniProt Q5NUL3). As to the kind of experiment: GPR120 pERK AlphaScreen SureFire assay (human GPR120 pERK assay). The class given is cell-based. As to conditions: CHOA12 or CHO-K1 cells stably transfected with short form of human GPR120, 100% = 50 μM linolenic acid. The source says: GPR120 activity was monitored by measuring phosphorylation of ERK (pERK), since G protein receptors are known to activate the ERK signaling cascade either directly and/or through recruitment of arrestin that serves as a scaffold for downstream signaling events.
Chain of human GPR120 (Q5NUL3 whole entry): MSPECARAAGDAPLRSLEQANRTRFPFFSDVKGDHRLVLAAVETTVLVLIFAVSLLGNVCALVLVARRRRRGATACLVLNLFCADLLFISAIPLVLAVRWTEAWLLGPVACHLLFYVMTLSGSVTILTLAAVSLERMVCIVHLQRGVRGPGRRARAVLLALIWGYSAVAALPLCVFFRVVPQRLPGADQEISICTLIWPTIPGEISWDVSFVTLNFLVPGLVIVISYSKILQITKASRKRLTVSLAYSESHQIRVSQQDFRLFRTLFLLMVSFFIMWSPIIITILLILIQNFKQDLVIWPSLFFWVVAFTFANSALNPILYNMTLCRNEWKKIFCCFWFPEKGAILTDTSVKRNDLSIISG
GPR120 pERK AlphaScreen SureFire Assay
The human and mouse GPR120-mediated intracellular phosphorylated ERK assays were established using CHOA12 cells stably transfected with the short form of human or mouse GPR120 receptor. Cells were cultured in growth medium consisting of F-12 media (Invitrogen Cat. #11765) with 5% Charcoal/Dextran FBS (Invitrogen Cat. #12676-029), 500 μg/mL GENETICIN® (Life Technologies Cat. #10131-027) and 250 μg/mL Zeocin (Invitrogen Cat. #R250-01). Cells were cryo preserved at a concentration of 2×10^7 cells/mL, in 90% Charcoal/Dextran FBS and 10% DMSO, and frozen in liquid nitrogen at a low passage number.
For the pERK assay, 2×10^7 cells/mL cryopreserved human and mouse cells were thawed rapidly in a 37° C. water bath and added to a T-225 flask containing 50 mL growth medium. The flasks were placed in a tissue culture incubator overnight (37° C., 5% CO2). The next day, cells were harvested with trypsin (Gibco Cat. #25300-054), resuspended in serum-containing growth medium and counted using a Cellometer and volume adjusted to a concentration of 0.6×10^6 cells/mL. Cells were plated into 384-well clear bottom tissue culture plates (BD Cat. #353962) at 50 μL/well, for a density of 30,000 cells/well using a MULTIDROP® and incubated for 16-18 hours (overnight) at 37° C. with 5% CO2. The next day, cells were serum starved in 30 μL of F-12 media without any serum or antibiotics for 2 hours at 37° C.
Test compounds were 3-fold, 11-point serially diluted in DMSO in a REMP assay plate (Matrix Cat. #4307) by Tecan and 5 μL was transferred into an ECHO source plate (Labcyte Cat. #LC-0200). Cells were then stimulated with 50 nL of compound dilutions using ECHO liquid handler for 7 minutes at 37° C. Compounds ranged from final assay concentrations of 33.33 μM to 0.56 nM.
The media was then dumped and cells lysed with 20 μL of 1× Lysis buffer from the AlphaScreen SureFire Phospho-ERK 1/2 Kit (Perkin Elmer Cat. #6760617M). The lysis buffer was diluted 5-fold with water before use. The plate was agitated on a shaker for 10 minutes after which 2 μL was transferred into a 384-well white proxiplate (Perkin Elmer Cat. #6008289). The SureFire assay reagent mix was prepared by mixing 60 parts Reaction Buffer, 10 parts Activation Buffer, 1 part Donor Beads, 1 part Acceptor Beads (Perkin Elmer Cat. #TGRES10K). 3.5 μL/well of this reagent mix was manually added to the proxiplate with a multichannel pipettor. Plates were spun down at 1000 rpm for 2 minutes, followed by light-protected incubation at room temperature for 2 hours. The plates were read on the Alpha-technology compatible Envision multilabel plate reader using AlphaScreen protocol according to manufacturer's specifications. The agonist effect of compounds was expressed as 100×(average sample-average blank)/(average total−average blank) where sample is the luminescence activity in the presence of test compound, blank is equal to the luminescence activity in the presence of DMSO control and the total is signal induced by 50 μM linolenic acid as reference compound. Activation data for the test compound over a range of concentrations was plotted as percentage activation of the test compound (100%=maximum response). After correcting for background, EC50 values were determined. The EC50 is defined as the concentration of test compound which produces 50% of the maximal response and was quantified using the 4 parameter logistic equation to fit the data.
The human and mouse GPR120-mediated intracellular phosphorylated ERK assays were also established using CHO-K1 cells stably transfected with the short form of human or mouse GPR120 receptor. […]

The molecule `O=C(O)[C@H]1C[C@@H]1COc1ccc(C2CCCC(Oc3ccccc3)C2)cc1` (mixture of isomers) [Example 11, (1S,2S)-2-((4-((+/−)-3-Phenoxycyclohexyl)phenoxy)methyl)cyclopropanecarboxylic acid] returned an EC50 of 600 nM.
Regarding `Cc1ccc(O[C@H]2CCC[C@@H](c3ccc(CCOCC(=O)O)cc3)C2)cc1F` (racemic) [Example 34], the midpoint of the response, the EC50, lay at 300 nM.
Under `Cc1ccc(O[C@H]2CCC[C@@H](c3ccc(CCOCC(=O)O)cc3)C2)cn1` (racemic) [Example 35] stands 1610 nM; under `Cc1ccc(O[C@H]2CCC[C@@H](c3ccc(CCOCC(=O)O)cc3)C2)cc1` (racemic) [Example 36], 310 nM.
`O=C(O)COCCc1ccc([C@@H]2CCC[C@H](Oc3ccc(F)cc3)C2)cc1` (racemic) [Example 37] gave an EC50 of 4240 nM. Compared with the last molecule, the EC50 is about 14-fold higher.
For `O=C(O)COCCc1ccc([C@@H]2CCC[C@H](Oc3ccc(Cl)cc3)C2)cc1` (racemic) [Example 38], it took 720 nM to reach a half-maximal effect (EC50). Against the preceding molecule, the EC50 is about 5.9-fold lower.
Molecule `N#Cc1ccc(O[C@H]2CCC[C@@H](c3ccc(CCOCC(=O)O)cc3)C2)cc1` (racemic) [Example 39] had an EC50 of 3240 nM.
In turn, `O=C(O)[C@H]1C[C@@H]1CCc1ccc([C@@H]2CCC[C@@H](Oc3ccccc3)C2)cc1` (racemic) [Example 40] returned a concentration giving a half-maximal response (EC50) of 3750 nM.
As for `O=C(O)[C@@H]1C[C@H]1CCc1ccc([C@@H]2CCC[C@@H](Oc3ccccc3)C2)cc1` (racemic) [Example 41], a half-maximal response (EC50) required 1940 nM.
The value for `O=C(O)[C@H]1C[C@@H]1COc1ccc([C@@H]2CCC[C@@H](Oc3ccccc3)C2)cc1` (racemic) [Example 42] was above 32000 nM.
For the molecule `CC(C)O[C@H]1CCC[C@@H](c2ccc(OC[C@H]3C[C@@H]3C(=O)O)cc2)C1` (racemic) [Example 43], the 50% effective concentration (EC50) is above 16000 nM.
On to `O=C(O)CCCCc1ccc([C@@H]2CCC[C@H](Oc3ccccc3)C2)cc1` (single isomer, unassigned) [Example 1, 5-(4-((+/−)-3-Phenoxycyclohexyl)phenyl)pentanoic acid], for which the midpoint of the response, the EC50, lay at 480 nM.
With `O=C(O)CCCCc1ccc([C@@H]2CCC[C@@H](Oc3ccccc3)C2)cc1` (single isomer, unassigned) [Example 2, 5-(4-((+/−)-3-Phenoxycyclohexyl)phenyl)pentanoic acid], the response was half-maximal at 2360 nM (EC50).
`CC(C)O[C@H]1CCC[C@@H](c2ccc(CCCCC(=O)O)cc2)C1` (single isomer, unassigned) [Example 3, 5-(4-((+/−)-3-Isopropoxycyclohexyl)phenyl)pentanoic acid]: the EC50 worked out at 1160 nM.
The value for `O=C(O)COCCc1ccc([C@@H]2CCC[C@H](Oc3ccccc3)C2)cc1` (single isomer, unassigned) [Example 4, 2-(4-((+/−)-3-Phenoxycyclohexyl)phenethoxy)acetic acid] was 320 nM; that for `O=C(O)COCCc1ccc([C@H]2CCC[C@@H](Oc3ccccc3)C2)cc1` (single isomer, unassigned) [Example 5] was 1030 nM.
`O=C(O)COCCc1ccc([C@@H]2CCC[C@H](Oc3ccccc3)C2)cc1` (single isomer, unassigned) [Example 6] returned a concentration for a half-maximal effect (EC50) of 180 nM. This EC50 is about 5.7-fold lower than that of the molecule before.
Molecule `O=C(O)[C@H]1C[C@@H]1CCc1ccc([C@@H]2CCC[C@H](Oc3ccccc3)C2)cc1` (single isomer, unassigned) [Example 7] yielded an EC50 of 920 nM.
Consider `O=C(O)[C@H]1C[C@@H]1CCc1ccc([C@H]2CCCC(Oc3ccccc3)C2)cc1` (single isomer, unassigned) [Example 8], for which the EC50 came out at 1450 nM.
On to `O=C(O)[C@H]1C[C@@H]1CCc1ccc([C@@H]2CCCC(Oc3ccccc3)C2)cc1` (single isomer, unassigned) [Example 9], for which the midpoint of the response, the EC50, lay at 650 nM.
Regarding `O=C(O)[C@@H]1C[C@H]1CCc1ccc([C@@H]2CCC[C@H](Oc3ccccc3)C2)cc1` (single isomer, unassigned) [Example 10], the EC50 came out at 530 nM.
Turning to `O=C(O)CCCCc1ccc(C2CCCCC(Oc3ccccc3)C2)cc1` (single isomer, unassigned) [Example 12, 5-(4-(3-Phenoxycycloheptyl)phenyl)pentanoic acid], the concentration for a half-maximal effect (EC50) was 310 nM.
The value for `O=C(O)CCCCc1ccc(C2CCCCC(Oc3ccccc3)C2)cc1` (single isomer, unassigned) [Example 13, 5-(4-(3-Phenoxycycloheptyl)phenyl)pentanoic acid] was 1030 nM; that for `O=C(O)COCCc1ccc(C2CCCCC(Oc3ccccc3)C2)cc1` (single isomer, unassigned) [Example 15, 2-(4-(3-Phenoxycycloheptyl)phenethoxy)acetic acid] was 1990 nM.
As for `O=C(O)COCCc1ccc(C2CCCCC(Oc3ccccc3)C2)cc1` (single isomer, unassigned) [Example 16, 2-(4-(3-Phenoxycycloheptyl)phenethoxy)acetic acid], the half-maximal effective concentration (EC50) came out at 750 nM.
Under `O=C(O)COCCc1ccc(C2CCCCC(Oc3ccccc3)C2)cc1` (single isomer, unassigned) [Example 17, 2-(4-(3-Phenoxycycloheptyl)phenethoxy)acetic acid] stands 270 nM; under `O=C(O)[C@@H]1C[C@@H]1COc1ccc(N2CCCC(Oc3ccccc3)C2)cc1` (single isomer, unassigned) [Example 28, (+/−)-2-((4-(3-Phenoxypiperidin-1-yl)phenoxy)methyl)cyclopropanecarboxylic acid], 4980 nM; under `O=C(O)COCCc1ccc(C2CCCCC(Oc3ccccc3)C2)cc1` (stereo not drawn) [Example 14, 2-(4-(3-Phenoxycycloheptyl)phenethoxy)acetic acid], 630 nM.
As for `O=C(O)CCCCc1ccc(C2CCC(Oc3ccccc3)C2)cc1` (stereo not drawn) [Example 18, 5-(4-(3-Phenoxycyclopentyl)phenyl)pentanoic acid], the EC50 was found to be 1380 nM.
`O=C(O)COCCc1ccc(C2CCC(Oc3ccccc3)C2)cc1` (stereo not drawn) [Example 19, 2-(4-(3-Phenoxycyclopentyl)phenethoxy)acetic acid] gave an EC50 of 2130 nM.
Under `O=C(O)CCCCc1ccc(N2CCC[C@H](Oc3ccccc3)C2)cc1` [Example 23, (S)-5-(4-(3-Phenoxypiperidin-1-yl)phenyl)pentanoic acid] stands 500 nM; under `O=C(O)CCCCc1ccc(N2CCC[C@H](Oc3ccc(F)cc3)C2)cc1` [Example 24, (S)-5-(4-(3-(4-Fluorophenoxy)piperidin-1-yl)phenyl)pentanoic acid], 930 nM; under `O=C(O)CCCCc1c(F)cc(N2CCC[C@H](Oc3ccccc3)C2)cc1F` [Example 25, (S)-5-(2,6-Difluoro-4-(3-phenoxypiperidin-1-yl)phenyl)pentanoic acid], 540 nM.
As for `O=C(O)CCCCc1ccc(N2CCC[C@H](Oc3ccccc3)C2)cc1F` [Example 26, (S)-5-(2-Fluoro-4-(3-phenoxypiperidin-1-yl)phenyl)pentanoic acid], it took 570 nM to reach a half-maximal effect (EC50).
Take `O=C(O)COCCCc1ccc(N2CCCC(Oc3ccccc3)C2)cc1` (stereo not drawn) [Example 27, 2-(3-(4-(3-Phenoxypiperidin-1-yl)phenyl)propoxy)acetic acid]: the half-maximal effective concentration (EC50) was 4130 nM.
Turning to `O=C(O)CCCCc1ccc(C2CCCCC(Oc3ccc(Cl)cc3)C2)cc1` (stereo not drawn) [Example 44], the concentration giving a half-maximal response (EC50) was 530 nM.
For `O=C(O)CCCCc1ccc(C2CCCCC(Oc3cccc(Cl)c3)C2)cc1` (stereo not drawn) [Example 45], it took 2020 nM to reach a half-maximal effect (EC50).
The value for `O=C(O)CCCCc1ccc(C2CCCCC(Oc3ccccc3Cl)C2)cc1` (stereo not drawn) [Example 46] was 3120 nM.
Take `CC(C)OC1CCC(c2ccc(CCCCC(=O)O)cc2)C1` (stereo not drawn) [Example 47]: the EC50 came to 3770 nM.
